The supplement of paper PMC10307832

compound: Cn1c(=O)n(-c2ccc(C(C)(C)C#N)cc2)c2c3cc(-c4cnc5ccccc5c4)ccc3ncc21 [Dactolisib] + O=C(c1cc(Cc2n[nH]c(=O)c3ccccc23)ccc1F)N1CCN(C(=O)C2CC2)CC1 [Olaparib] (partner 8 µM); assay: relative viability (nuclei count vs DMSO), 5 days (fraction); higher = more cells survive; details: first compound 0.02 µM
Method in brief: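 After 5 days of treatment, lung cancer cells in 1536-well plates were fixed and stained in a single step (final 0.05% Triton X-100, 1% formaldehyde, 1 ug/ml Hoechst) and their nuclei counted on 4× images. Treatment had been applied by pin tool the day after seeding as one drug alone or as a fixed anchor-drug dose with five library-drug doses (not always all listed) in √10 steps. Relative viability is the nuclei count of treated wells divided by that of vehicle wells, and values are medians of duplicate plates.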

Row | Cell Line | relative viability
1 | NCI-H1734 | 0.471
2 | NCI-H460 | 0.423
3 | NCI-H2347 | 0.531
4 | SW 1573 | 0.418
5 | NCI-H1395 | 0.428
6 | 201T | 0.849
7 | NCI-H1915 | 0.293
8 | HCC-827 | 0.608
9 | LXF-289 | 1
10 | NCI-H23 | 0.239
11 | NCI-H1299 | 1.04
12 | NCI-H647 | 0.315
13 | CAL-12T | 0.496
14 | NCI-H1651 | 0.178
15 | EPLC-272H | 0.512
16 | NCI-H2228 | 0.326
17 | NCI-H1792 | 0.394
18 | NCI-H1355 | 0.644
19 | NCI-H3122 | 0.659
20 | NCI-H1437 | 0.629
21 | NCI-H1755 | 0.86
22 | NCI-H2023 | 0.281
23 | HCC-15 | 0.699
24 | NCI-H1793 | 0.254
25 | PC-14 | 0.359

same assay, conditions: first compound 0.06325 µM

Row | Cell Line | relative viability
26 | NCI-H2342 | 0.376
27 | NCI-H727 | 0.699
28 | NCI-H1650 | 0.498
29 | EBC-1 | 0.19
30 | NCI-H1703 | 0.198
31 | NCI-H1993 | 0.432
32 | SK-LU-1 | 0.402
33 | NCI-H838 | 0.273
34 | LCLC-103H | 0.571
35 | NCI-H520 | 0.144
36 | NCI-H2126 | 0.514
37 | EMC-BAC-2 | 0.372
38 | NCI-H2085 | 0.513
39 | Calu-6 | 0.469
40 | HCC-366 | 0.166
41 | NCI-H1666 | 0.713
42 | NCI-H596 | 0.417
43 | LK-2 | 0.328
44 | NCI-H2087 | 0.197
45 | NCI-H1648 | 0.473
46 | SK-MES-1 | 0.286
47 | H3255 | 0.475
48 | COR-L23 | 0.182

Row | Cell Line | relative viability
49 | COR-L 105 | 0.592
50 | IA-LM | 0.348
51 | LOU-NH91 | 0.608
52 | ChaGo-K-1 | 0.457
53 | NCI-H2170 | 0.389
54 | NCI-H2405 | 0.5
55 | HOP-62 | 0.298
56 | HCC-44 | 1.01
57 | A549 | 0.122
58 | NCI-H522 | 0.464
59 | LU99A | 0.181
60 | BEN | 0.635
61 | HARA | 0.684
62 | SW 900 | 0.502
63 | HCC-78 | 0.452
64 | NCI-H322M | 0.719
65 | LCLC-97TM1 | 0.256
66 | NCI-H2009 | 0.759
67 | A-427 | 0.619
68 | NCI-H441 | 0.248
69 | NCI-H661 | 0.504
70 | NCI-H1734 | 0.405
71 | NCI-H460 | 0.341

Row | Cell Line | relative viability
72 | NCI-H2347 | 0.471
73 | SW 1573 | 0.162
74 | NCI-H1395 | 0.387
75 | 201T | 0.782
76 | NCI-H1915 | 0.264
77 | HCC-827 | 0.479
78 | LXF-289 | 0.973
79 | NCI-H23 | 0.223
80 | NCI-H1299 | 0.568
81 | NCI-H647 | 0.129
82 | CAL-12T | 0.286
83 | NCI-H1651 | 0.208
84 | EPLC-272H | 0.284
85 | NCI-H2228 | 0.177
86 | NCI-H1792 | 0.135
87 | NCI-H1355 | 0.443
88 | NCI-H3122 | 0.629
89 | NCI-H1437 | 0.64
90 | NCI-H1755 | 0.733
91 | NCI-H2023 | 0.122
92 | HCC-15 | 0.535
93 | NCI-H1793 | 0.18
94 | PC-14 | 0.141

same assay, conditions: first compound 0.2 µM

Row | Cell Line | relative viability
95 | NCI-H2342 | 0.382
96 | NCI-H727 | 0.629
97 | NCI-H1650 | 0.568
98 | EBC-1 | 0.176
99 | NCI-H1703 | 0.285
100 | NCI-H1993 | 0.37
101 | SK-LU-1 | 0.216
102 | NCI-H838 | 0.208
103 | LCLC-103H | 0.395
104 | NCI-H520 | 0.128
105 | NCI-H2126 | 0.44
106 | EMC-BAC-2 | 0.356
107 | NCI-H2085 | 0.359
108 | Calu-6 | 0.458
109 | HCC-366 | 0.142
110 | NCI-H1666 | 0.747
111 | NCI-H596 | 0.329
112 | LK-2 | 0.17
113 | NCI-H2087 | 0.243
114 | NCI-H1648 | 0.246
115 | SK-MES-1 | 0.171
116 | H3255 | 0.399
117 | COR-L23 | 0.141

Row | Cell Line | relative viability
118 | COR-L 105 | 0.367
119 | IA-LM | 0.738
120 | LOU-NH91 | 0.632
121 | ChaGo-K-1 | 0.443
122 | NCI-H2170 | 0.255
123 | NCI-H2405 | 0.409
124 | HOP-62 | 0.36
125 | HCC-44 | 1.01
126 | A549 | 0.0942
127 | NCI-H522 | 0.446
128 | LU99A | 0.172
129 | BEN | 0.478
130 | HARA | 0.24
131 | SW 900 | 0.424
132 | HCC-78 | 0.336
133 | NCI-H322M | 0.674
134 | LCLC-97TM1 | 0.093
135 | NCI-H2009 | 0.312
136 | A-427 | 0.495
137 | NCI-H441 | 0.25
138 | NCI-H661 | 0.434
139 | NCI-H1734 | 0.266
140 | NCI-H460 | 0.335

Row | Cell Line | relative viability
141 | NCI-H2347 | 0.407
142 | SW 1573 | 0.145
143 | NCI-H1395 | 0.401
144 | 201T | 0.54
145 | NCI-H1915 | 0.246
146 | HCC-827 | 0.411
147 | LXF-289 | 0.695
148 | NCI-H23 | 0.161
149 | NCI-H1299 | 0.742
150 | NCI-H647 | 0.0846
151 | CAL-12T | 0.271
152 | NCI-H1651 | 0.215
153 | EPLC-272H | 0.232
154 | NCI-H2228 | 0.104
155 | NCI-H1792 | 0.101
156 | NCI-H1355 | 0.27
157 | NCI-H3122 | 0.641
158 | NCI-H1437 | 0.543
159 | NCI-H1755 | 0.476
160 | NCI-H2023 | 0.0803
161 | HCC-15 | 0.39
162 | NCI-H1793 | 0.169
163 | PC-14 | 0.0895
